How the values were obtained:
Format in all cases: physicochemical
[1] = Stability study during storage at 25° C. and 60% relative humidity; conditions: 25° C./60% RH
Protocol: Stability Study of Atorvastatin Calcium Crystalline Form VI (Example 3) During Storage at 25° C. and 60% Relative Humidity.
Stability packaging: same as Example 5.

[2] = Particle size distribution by Malvern particle size analyzer; conditions: dispersant 0.7% dioctyl sodium sulfosuccinate in n-hexane
Description: A particle size distribution of D50 as used herein is defined as the distribution where 50 volume percent of the particles are smaller than that size given. A particle size distribution of D10 as used herein is defined as the distribution where 10 volume percent of the particles are smaller than that size given. A particle size distribution of D90 as used herein is defined as the distribution where 90 volume percent of the particles are smaller than that size given. The D50 value is considered to be a “mean particle size.” Particle size can be determined using commercially available instrumentation, such as that sold by Malvern Instruments Ltd. of Malvern, Worcestershire, United Kingdom and using a laser diffraction principle.
The particle size distribution of atorvastatin calcium Form VI was determined using a Malvern® particle size analyzer, and 0.7% of dioctyl sodium sulfosuccinate in n-hexane was used as the dispersant.

[3] = Stability study under various stress conditions in an open container
Description: Stability Study of Atorvastatin Calcium Crystalline Form VI (Example 3) Subject to Various Stress Conditions in an Open Container

[4] = Stability study at 40° C. and 75% relative humidity; conditions: 40° C./75% RH
Description: Stability packaging: The sample was packed in a clear polyethylene bag and flushed with nitrogen, then tied and placed in a black polyethylene bag along with silica gel and tied. Finally the black bag was placed in a triple laminated bag and sealed with a liner sealer.

[5] = Accelerated Stability (40° C. and 75% relative humidity) 24 hours
[6] = Compression (2000 kg/cm^2) for 1 hour
[7] = UV Photostability λ = 254 nm, 24 hours

[R—(R*,R*)]-2-(4-fluorophenyl)-β,δ-dihydroxy-5-(1-methylethyl)-3-phenyl-4[(phenyl amino) carbonyl]-IH-pyrrole-1-heptanoic acid, calcium salt (2:1) trihydrate [Atorvastatin calcium Form VI (Example 3)]
Assay by HPLC ([1]; 1 month): 99.1 % w/w | Moisture Content ([1]; 1 month): 1.5 % w/w | Total Impurities by HPLC ([1]; 1 month): 0.16 % w/w | Assay by HPLC ([1]; 3 months): 99.1 % w/w | Moisture Content ([1]; 3 months): 1.7 % w/w | Total Impurities by HPLC ([1]; 3 months): 0.14 % w/w | Assay by HPLC ([1]; 6 months): 99.3 % w/w | Moisture Content ([1]; 6 months): 1.5 % w/w | Total Impurities by HPLC ([1]; 6 months): 0.23 % w/w | Assay by HPLC ([1]; Initial): 99.1 % w/w | Moisture Content ([1]; Initial): 1.4 % w/w | Total Impurities by HPLC ([1]; Initial): 0.18 % w/w | Particle Size D10 [2]: 1.32 μm | Particle Size D50 [2]: 5.22 μm | Particle Size D90 [2]: 24.54 μm | Total Impurities [3, 5]: 0.29 % w/w | Water by KF [3, 5]: 1.85 % w/w | Total Impurities [3, 6]: 0.32 % w/w | Water by KF [3, 6]: 1.68 % w/w | Total Impurities ([3]; Initial analysis): 0.26 % w/w | Water by KF ([3]; Initial analysis): 1.60 % w/w | Total Impurities ([3]; Thermal (90° C.) 24 hours): 0.7 % w/w | Water by KF ([3]; Thermal (90° C.) 24 hours): 1.04 % w/w | Total Impurities [3, 7]: 0.27 % w/w | Water by KF [3, 7]: 1.54 % w/w | Assay by HPLC ([4]; 1 month): 99.2 % w/w | Moisture Content ([4]; 1 month): 1.4 % w/w | Total Impurities by HPLC ([4]; 1 month): 0.14 % w/w | Assay by HPLC ([4]; 3 months): 99.2 % w/w | Moisture Content ([4]; 3 months): 1.6 % w/w | Total Impurities by HPLC ([4]; 3 months): 0.15 % w/w | Assay by HPLC ([4]; 6 months): 99.2 % w/w | Moisture Content ([4]; 6 months): 1.6 % w/w | Total Impurities by HPLC ([4]; 6 months): 0.24 % w/w | Assay by HPLC ([4]; Initial): 99.1 % w/w | Moisture Content ([4]; Initial): 1.4 % w/w | Total Impurities by HPLC ([4]; Initial): 0.18 % w/w

Reference: patent US20080051449A1, “PREPARATION OF ATORVASTATIN CALCIUM FORM VI AND COMPOSITIONS THEREOF” (priority 2006, published 2008)
